Several values for one entry are separate records, joined by “and”; a condition that tells them apart may be missing. Identical values can stand only once. Entries after “also recorded” stand apart in the source; their conditions may differ.

This note sets out measurements from patent publication US20260345729A1, “TISSUE DIFFERENTIATION FACTOR RELATED POLYPEPTIDES (TDFRPS) FOR THE TREATMENT OF MYOCARDIAL INJURY” (Therapeutics By Design, LLC, priority 2022, published 2026).

Data set [1] deals with phosphorylation of AKT, cardiomyocytes. The data set can be described thus: Phosphorylated AKT in doxorubicin-treated cardiomyocytes. The note with it: FIG. 2. It is filed as cell-based, rat. An excerpt: (§1) The examples described herein valuated the effect of TDFRP's on the physiology of cardiomyocytes in vitro. Phosphorylation of cellular AKT at Ser473 is known to promote cardiomyocyte survival, function, and contractility. Cellular enzyme Caspase-3 is responsible for apoptosis via both apoptosis pathways. Chemotherapeutic agent doxorubicin […] used to treat a diverse number of cancers, but one significant side effect is decreased heart function. In cardiomyocytes, doxorubicin hinders the phosphorylation of AKT and stimulates Caspase-3. Lipopolysaccharides (LPS) are endotoxins that promote inflammation and apoptosis in cardiomyocytes.
(§2) Neonatal rat cardiomyocytes (CM) were pre-treated with 0.33 μM doxorubicin for 24 h, followed by treatment with BMP-7 (143 nM) or THR-123 (SEQ ID NO: 1) at 100 and 500 μM for 60 h.

The subject of data set [2] is Caspase-3, cardiomyocytes. Description: Doxorubicin-induced Caspase-3 activity in cardiomyocytes. The data set is classed as cell-based, rat. The note with it: for caspase-3 activity (effect of doxorubicin itself): 333 μM (legend) / 0.33 μM (example) doxorubicin, cardiomyocytes, FIG. 3; for doxorubicin induced Caspase-3 activity: doxorubicin 0.33 μM 24 h (FIG. 3 legend: 333 μM), then BMP-7 143 nM or THR-123 100 and 500 μM for 60 h, p<0.05. Here is the method:
as §2
Neonatal rat cardiomyocytes (CM) were pre-treated with 0.33 μM doxorubicin for 24 h, followed by treatment with BMP-7 (143 nM) or SEQ ID No. 1 at 100 and 500 μM for 60 h. […] Caspase-3 activation is a step common to both apoptotic pathways and leads to apoptosis.

Data set [3] relates to Akt phosphorylation at Serine 473, neonatal rat cardiomyocytes. Description: Akt phosphorylation (Ser473) in cardiomyocytes starved by serum withdrawal (ischemic injury). The data set is classed as cell-based. Conditions: serum/growth supplement withdrawal; THR-123 100 μM, 60 h; p<0.01; FIG. 1.
Description: Phosphorylated Akt is a marker of apoptosis. Ischemic injury leads to apoptosis.
as §1
Primary neonatal rat cardiomyocytes (Cell Applications) were cultured in medium with 10% growth supplement (Cell Applications) for 24 hours at 37 °C, 5% CO2. Cells were then starved of growth supplement for 12 hours to create ischemic injury. Controls received medium alone. Cells were incubated with culture medium alone, BMP-7 (143 nM) or SEQ ID No. 1 (100 μM) for 60 h. In FIG. 1, Akt phosphorylation at Serine 473 (Cell Signaling Technology) is depressed due to media starvation and was not affected by the addition of PBS.

Data set [4] relates to Caspase-3, cardiomyocytes. Description: LPS-induced Caspase-3 in cardiomyocytes. The data set is classed as cell-based, human. Conditions: 100 ng/ml LPS; BMP-7 143 nM; THR-123 4, 20, 100, 500 μM (legend: 20 μM or higher); FIG. 4.
The subject of a further data set is IL-6, cardiomyocytes. The data set can be described thus: LPS-induced IL-6 release in cardiomyocytes. The data set is classed as cell-based, human. The note with it: 100 ng/ml LPS; BMP-7 143 nM; THR-123 4, 20, 100, 500 μM; FIG. 5.
Data set [5] deals with myocardial ischemia in the rat after ligation of the left anterior descending artery. The data set can be described thus: Rat LAD ligation model: histomorphometric necrotic volume / volume at risk (ischemia/reperfusion injury). The data set is classed as in vivo. Conditions: i.v. 2 hr prior and 24, 72, 120 hr post ligation, 20 min ischemia, 7 days reperfusion, BMP-7 160 μg/kg (p=0.08), THR-123 10 mg/kg (p=0.007), FIG. 8. As for the experimental part: For each slice of a heart, the area of the necrotic area and the area of the whole area at risk (not stained blue) are measured. The areas are summed over all slices to obtain an estimate of the necrotic volume (NV) and the volume at risk (VR). The ratio of NV/VR is a measure of the myocardial injury resulting from the period of ischemia and subsequent reperfusion injury.
The efficacy of BMP mimetic THR-123 in ameliorating the effects of myocardial ischemia was investigated in the rat after ligation of the coronary artery. The rat LAD model is used for studying the effect of treatments for ameliorating the effect of a heart attack (coronary infarct). The Left Anterior Descending artery (LAD) supplies blood to the left ventricle. Blocking blood flow through the LAD creates ischemia in a region of the left ventricle muscle (region at risk). […]
Twenty-four unmanipulated rats, sorted into three large groups by initial body weight (>300 g pre-surgery) were evaluated. […]
The effect of the LAD ligation was measured via histomorphometric analysis of heart slices where the necrotic areas (yellow) and the areas impacted by the LAD ligation (area at risk, i.e., not stained blue) were measured for each slice and summed over all slices to obtain a measure of the infarct volume and the volume at risk (FIG. 7). […]

Data set [6] deals with paracardial inflammation in rat hearts after LAD ligation. Description: Paracardial inflammation / pericarditis inflammation level in rat LAD ligation model. It is filed as in vivo. Conditions: i.v.; BMP-7 160 μg/kg; THR-123 10 mg/kg; day 7 post ligation; FIG. 9. Here is the method:
Myocardial ischemia was created by ligating the left anterior descending artery (LAD), which supplies blood to the left ventricle of the heart. In the LAD infarct model the chest and the pericardium are opened to expose the LAD. A suture is placed around the LAD and loops are added to the two ends, then the suture is tightened with an over hand knot (ligation). The ligation blockage to the LAD was maintained for 20 min to simulate a coronary infarct, then released using the two loops.
The animals were divided into three groups that were dosed with PBS, BMP-7, or THR-123 (SEQ ID NO: 1). Administrations were at 2 hr prior to ligation and at 24, 72 and 120 hr post ligation.
Twenty-four unmanipulated rats, sorted into three large groups by initial body weight (>300 g pre-surgery) were evaluated. Animals underwent surgery and were sorted into 3 treatment groups: Group 1: Vehicle (neg. control), PBS, equal volume i.v; Group 2: BMP-7, 160 μg/kg i.v.<5 ml/kg; Group 3: THR-123 (SEQ ID NO: 1), 10 mg/kg i.v.<5 ml/kg. The LAD was ligated to create a 20 min period of ischemia, then released for seven days during which reperfusion injury occurs (IR injury).
The predominance of the hearts from the PBS treated group had more severe inflammation than hearts from the BMP-7 treated and the THR-123 (SEQ ID NO: 1) treated groups (FIG. 9).

As to `COc1cccc2c1C(=O)c1c(O)c3c(c(O)c1C2=O)C[C@@](O)(C(=O)CO)C[C@@H]3O[C@H]1C[C@H](N)[C@H](O)[C@H](C)O1` [doxorubicin, reference compound], the “phosphorylation of AKT (effect of doxorubicin itself)” value in data set [1] (333 nM doxorubicin, serum starved cardiomyocytes) is “further reduces phosphorylation of AKT”. Also, the “caspase-3 activity (effect of doxorubicin itself)” value in data set [2] is “stimulated caspase-3 activity”; in data set [2] (listed as Doxorubicin) it was “Stimulated Caspase-3”.
With “THR-123: TDFRP peptide, BMP mimetic: (H) CYFDDSSNVLCKKYRS (OH)”, the “Akt Ser473 phosphorylation” value in data set [3] is listed as “significantly increased Akt Ser473 phosphorylation; also recorded: reversed the effects of ischemia on AKT phosphorylation”. For the same molecule, the “Akt phosphorylation compared to doxorubicin alone” value in data set [1] (0.33 μM (333 nM) doxorubicin 24 h, then THR-123 at 100 and 500 μM for 60 h, p<0.01) was “significantly increased cellular Akt phosphorylation; also recorded: reversed the inhibition of AKT phosphorylation in a dose dependent manner”. In data set [2], the “doxorubicin induced Caspase-3 activity” value was “inhibited doxorubicin induced Caspase-3 activity in a dose dependent manner; also recorded: significantly inhibited doxorubicin induced Caspase-3 activity; also recorded: completely reversed the apoptotic effects of doxorubicin”. The “LPS induced Caspase-3” value in data set [4] is “reduced the level of LPS induced Caspase-3 in a concentration dependent manner; also recorded: reversed caspase-3 activity to an even greater extent”. For the same molecule, the “LPS induced IL-6” value in the data set on IL-6, cardiomyocytes is reported as “reduces the level of LPS induced IL-6 in a concentration dependent manner; also recorded: reduced the level of IL-6 release as did THR-123 in a dose dependent manner”. Besides, the “reduction in myocardial injury / IR damage relative to PBS (necrotic volume / volume at risk)” value in data set [5] (10 mg/kg) is 85% and 84%. The “paracardial inflammation relative to PBS” value in data set [6] was “reduced paracardial inflammation relative to PBS”.

B1: BMP-7: bone morphogenetic proteins (BMPs) (protein, UniProt P18075 293-431, looked up)
Bone morphogenetic protein 7: STGSKQRSQNRSKTPKNQEALRMANVAENSSSDQRQACKKHELYVSFRDLGWQDWIIAPEGYAAYYCEGECAFPLNSYMNATNHAIVQTLVHFINPETVPKPCCAPTQLNAISVLYFDDSSNVILKKYRNMVVRACGCH
B1: the “doxorubicin induced Caspase-3 activity” value in data set [2] is listed as “significantly inhibited doxorubicin induced Caspase-3 activity; also recorded: completely reversed the apoptotic effects of doxorubicin”. The “LPS induced Caspase-3” value in data set [4] is reported as “reduced the level of LPS induced Caspase-3 in a concentration dependent manner; also recorded: somewhat reversed the effect of LPS”. Further, the “LPS induced IL-6” value with IL-6, cardiomyocytes is “reduces the level of LPS induced IL-6 in a concentration dependent manner; also recorded: reduced the level of IL-6 release”. Besides, the “reduction in myocardial injury / IR damage relative to PBS (necrotic volume / volume at risk)” value in data set [5] is reported as 51%. Also, the “paracardial inflammation relative to PBS” value in data set [6] is reported as “reduced paracardial inflammation relative to PBS”.
